Measurements published in the supplement of paper PMC10307832.

Assays:
Test in all cases: relative viability (nuclei count vs DMSO), 5 days (fraction); higher = more cells survive
[1] = compound: C1/C(=C\C2=CC=CS2)/C(=O)/C(=C/C3=CC=CS3)/C1 + CC(C)C[C@H](NC(=O)[C@H](Cc1ccccc1)NC(=O)c1cnccn1)B(O)O [Bortezomib] (partner 0.002 µM)
How it was run: (§1)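 Medians of duplicate plates are given as relative viability. That measure is the nuclei count in treated wells divided by the count in vehicle wells. Counts were taken on 4× images of lung cancer cell lines in 1536-well plates, 5 days after pin-tool dosing the day after seeding with one drug alone or a fixed anchor-drug dose plus five library-drug doses (not always all listed) in √10 steps.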

[2] = compound: C1/C(=C\C2=CC=CS2)/C(=O)/C(=C/C3=CC=CS3)/C1 + C[C@]1(O)C[C@@H](c2nc(-c3ccc4ccc(-c5ccccc5)nc4c3)c3c(N)nccn32)C1 [Linsitinib] (partner 1 µM)
How it was run: as §1

TPCA-1 + Pemetrexed = compound: C1=CC(=CC=C1C2=CC(=C(S2)NC(=O)N)C(=O)N)F [TPCA-1] + Nc1nc2[nH]cc(CCc3ccc(C(=O)N[C@@H](CCC(=O)O)C(=O)O)cc3)c2c(=O)[nH]1 [Pemetrexed] (partner 0.2 µM)
How it was run: as §1

Lestaurtinib + OSI-027 = compound: C[C@]12O[C@H](C[C@]1(O)CO)n1c3ccccc3c3c4c(c5c6ccccc6n2c5c31)CNC4=O [Lestaurtinib] + COc1cccc2cc(-c3nc([C@H]4CC[C@H](C(=O)O)CC4)n4ncnc(N)c34)[nH]c12 [OSI-027] (partner 0.5 µM)
How it was run: as §1

| Cell Line | relative viability ([1]; first compound 0.2 µM) | relative viability ([1]; first compound 0.6325 µM) | relative viability ([1]; first compound 2 µM) | relative viability ([1]; first compound 6.325 µM) | relative viability ([1]; first compound 20 µM) | relative viability ([2]; first compound 0.2 µM) | relative viability ([2]; first compound 0.6325 µM) | relative viability ([2]; first compound 2 µM) | relative viability ([2]; first compound 6.325 µM) | relative viability ([2]; first compound 20 µM) | relative viability (TPCA-1 + Pemetrexed; first compound 0.04 µM) | relative viability (TPCA-1 + Pemetrexed; first compound 0.1265 µM) | relative viability (TPCA-1 + Pemetrexed; first compound 0.4 µM) | relative viability (TPCA-1 + Pemetrexed; first compound 1.265 µM) | relative viability (TPCA-1 + Pemetrexed; first compound 4 µM) | relative viability (Lestaurtinib + OSI-027; first compound 0.005 µM) | relative viability (Lestaurtinib + OSI-027; first compound 0.01581 µM) | relative viability (Lestaurtinib + OSI-027; first compound 0.05 µM) | relative viability (Lestaurtinib + OSI-027; first compound 0.1581 µM) | relative viability (Lestaurtinib + OSI-027; first compound 0.5 µM) |
| --- | --- | --- | --- | --- | --- | --- | --- | --- | --- | --- | --- | --- | --- | --- | --- | --- | --- | --- | --- | --- |
| LCLC-103H | 1.1 | 0.998 | 1.08 | 1 | 1.07 | 1.12 | 1.16 | 1.15 | 0.975 | 0.995 | 0.522 | 0.426 | 0.464 | 0.398 | 0.432 | 0.442 | 0.49 | 0.349 | 0.385 | 0.286 |
| LOU-NH91 | 0.472 | 0.528 | 0.459 | 0.327 | 0.493 | 1 | 0.898 | 1.03 | 0.806 | 1.02 | 0.399 | 0.376 | 0.389 | 0.392 | 0.532 | 0.728 | 0.711 | 0.637 | 0.574 | 0.424 |
| LU99A | 1.21 | 1.13 | 1.26 | 0.668 | 0.941 | 0.535 | 0.497 | 0.574 | 0.353 | 0.61 | 0.17 | 0.162 | 0.196 | 0.167 | 0.198 | 0.288 | 0.263 | 0.262 | 0.249 | 0.203 |
| LXF-289 | 1.01 | 0.988 | 0.971 | 0.83 | 0.991 | 0.981 | 1.03 | 0.922 | 0.912 | 0.984 | 0.883 | 0.869 | 0.903 | 0.877 | 0.535 | 0.805 | 0.677 | 0.491 | 0.536 | 0.391 |
| NCI-H23 | 1.17 | 1.05 | 0.953 | 0.983 | 1.01 | 0.584 | 0.51 | 0.67 | 0.437 | 0.643 | 0.614 | 0.668 | 0.72 | 0.61 | 0.235 | 0.592 | 0.719 | 0.596 | 0.418 | 0.345 |
| NCI-H322M | 1.17 | 1.31 | 1.3 | 1.19 | 1.12 | 0.995 | 0.909 | 1.11 | 0.81 | 0.845 | 0.614 | 0.481 | 0.57 | 0.566 | 0.497 | 0.561 | 0.525 | 0.427 | 0.498 | 0.372 |
| NCI-H441 | 0.617 | 0.516 | 0.351 | 0.447 | 0.482 | 0.627 | 0.692 | 0.664 | 0.547 | 0.583 | 0.247 | 0.257 | 0.258 | 0.24 | 0.242 | 0.597 | 0.589 | 0.279 | 0.342 | 0.303 |
| NCI-H460 | 1.12 | 1.26 | 1.17 | – | 1.09 | 0.838 | 0.976 | 0.694 | – | 0.728 | 0.0613 | 0.0689 | – | 0.0518 | 0.0585 | 0.498 | 0.859 | 0.359 | 0.229 | 0.204 |
| NCI-H520 | 0.575 | 0.763 | 0.601 | 0.401 | 0.533 | 0.953 | 1.09 | 0.941 | 1.02 | 0.795 | 0.779 | 0.727 | 0.737 | 0.578 | 0.608 | 0.299 | 0.286 | 0.272 | 0.206 | 0.196 |
| NCI-H596 | 0.868 | 1.07 | 1.19 | 1.08 | – | 1.15 | 1.04 | 1.02 | 1.01 | 1.04 | 0.53 | 0.516 | 0.532 | 0.509 | 0.412 | 0.743 | 0.818 | 0.647 | 0.717 | 0.65 |
| NCI-H647 | 0.877 | 1.09 | 1.11 | 0.627 | 0.912 | 1.27 | 1.36 | 1.03 | 0.969 | 1.17 | 0.177 | 0.172 | 0.183 | 0.163 | 0.182 | 0.6 | 0.562 | 0.28 | 0.205 | 0.143 |
| NCI-H650 | 0.974 | 0.849 | 0.961 | 1.02 | 0.768 | 0.96 | 0.86 | 0.896 | 0.903 | 0.803 | 0.952 | 0.916 | 0.994 | 0.631 | 0.809 | 0.536 | 0.6 | 0.441 | 0.364 | 0.313 |
| NCI-H661 | 0.857 | 0.716 | 0.858 | 0.738 | 0.732 | 0.692 | 0.465 | 0.508 | 0.559 | 0.48 | 0.931 | 0.906 | 0.931 | 0.851 | 0.97 | 0.623 | 0.736 | 0.405 | 0.589 | 0.372 |
| NCI-H838 | 0.864 | 0.787 | 0.912 | 0.655 | 0.782 | 1.12 | 0.979 | 0.955 | 0.8 | 0.94 | 0.25 | 0.225 | 0.259 | 0.264 | 0.294 | 0.399 | 0.441 | 0.397 | 0.446 | 0.228 |
| NCI-H1355 | 1.21 | 1.2 | 1.21 | 1.1 | 1.14 | 0.906 | 0.744 | 0.863 | 0.666 | 0.758 | 1.06 | 1 | 1.01 | 0.945 | 0.878 | 0.387 | 0.438 | 0.362 | 0.309 | 0.286 |
| NCI-H1437 | 0.544 | 0.503 | 0.479 | 0.495 | 0.479 | 1.1 | 1.04 | 0.993 | 0.984 | 0.986 | 0.318 | 0.326 | 0.318 | 0.302 | 0.298 | 0.885 | 0.949 | 0.952 | 0.747 | 0.698 |
